Test results from patent US8193213B2, “Spermicidal and/or antifungal composition and methods of using the same” (priority 2003, dated 2012).
Marks after values point to notes of the source that are not given here.

Assays:
adult male Swiss mice = assay: Antispermatogenic screen: single gavage dose to male mice, testes weight and Spermatogenic Index at 72 h; type: in vivo; conditions: day 3 (72 h)
Procedure: The compounds of the invention were tested in mice for their effects on spermatogenesis three days after a single oral dose by the procedure described in Cook et al (1995) below. Compounds active in this test have been shown also to be anti-fertility compounds.
Compounds were screened for antispermatogenic activity by dosing male mice on day 1 with a gavage dose of control vehicle, positive control (compound 1) or compound of the invention. At 72 h after dosing, animals were killed and the testes were excised, trimmed of fat, and weighed. One testis was examined histologically and rated for spermatogenic potential using the Spermatogenic Index (J. M. Whitsett, P. F. Noden, J. Cherry and A. D. Lawton, J. Reprod. Fertil., 72, 277 (1984), which is a semiquantitative estimate of the sperm producing ability of the testes The index is based on histological appearance of the spermatogenic cells in the seminiferous tubules. A scale of 1 to 6 is used with 5 to 6 being the normal status. A second assessment was based on the weight of the testes.
Tables 1 and 2 show pertinent biological results in terms of the change in testes weight (TW) and spermatogenic index (SI) relative to a control containing only the administration vehicle, but no indenopyridine. In Tables 1 and 2, R^3 and R^4 refer to structures Ib, where R^3 is in the para position; R^1 is ethyl; R^2 is methyl; and R^5 is hydrogen.

Candida albicans = assay: Antifungal susceptibility testing (NCCLS, MIC/MFC) against C. albicans; type: cell-based; design: Lowest [Active]: unit not given here; conditions: for CFU for MFC at 300: concentration 300; for Lowest [Active]: concentrations 300, 200, 100, unit not given, N/A = no active concentration; for Lowest MIC: lowest concentration that appears to have no growth
Procedure: (§1) Antifungal susceptibility testing was performed following the NCCLS guidelines with minor modifications. Briefly, a suspension of Candida albicans cells was prepared from pure cultures grown overnight on yeast-malt extract (YM) agar at 35° C. Several small colonies were removed from a YM agar plate and transferred to 5 ml of 0.85% saline. The cells were suspended by 15 seconds of vortexing and the cell density of the resulting suspension was determined using a spectrophotometer. The cell density was adjusted by addition of 0.85% saline until the transmittance matched that of a 0.5 McFarland standard when measured at a wavelength of 530 nm. An aliquot of this suspension was diluted 1:1000 in RPMI-MOPS to yield a working suspension. A similar suspension of Aspergillus fumigatus spores was obtained by using spores stored at […] in 0.85% saline. These spores were diluted in 0.85% saline to match the McFarland standard transmittance. This suspension was then further diluted 1:50 in RPMI-MOPS to produce the working inoculum suspension.
(§2) Dilution series of the test compounds were made in RPMI-MOPS containing 2% DMSO. An aliquot of each dilution was added in duplicate to the wells of a sterile 96-well, flat bottom microtiter plate. Then, an aliquot of either the C. albicans cell suspension or the A. fumigatus spore suspension were added to each well for a final volume of 200 μl. The plates were then incubated at […]. […] A similar determination was made for the A. fumigatus plates after 48 hours. […] The numbers of colony forming units (CFU) were counted and these values used to calculate the percent survival of cells or spores in inocula relative to the number of CFUs in the working inoculum suspension. The minimum fungicidal concentration (MFC) was the lowest concentration of test compound with a percent survival of less than 2%.

Aspergillus fumigatus = assay: Antifungal susceptibility testing (NCCLS, MIC/MFC) against A. fumigatus; type: cell-based; design: Lowest [Active]: unit not given here; conditions: for CFU for MFC at 200: concentration 200; for Lowest [Active]: concentrations 300, 200, 100, unit not given, N/A = no active concentration; for Lowest MIC: lowest concentration that appears to have no growth
Procedure: as §1, §2

[1] = Table 2, 0.3 mg/kg single gavage dose, vehicle 1% Tween20 in water
[2] = Table 2, 1 mg/kg single gavage dose, vehicle 1% Tween20 in water
[3] = Table 2, 3 mg/kg single gavage dose, vehicle 1% Tween20 in water
[4] = Table 2, 10 mg/kg single gavage dose, vehicle 1% Tween20 in water
[5] = racemic compounds, 1 mg/kg single gavage dose, vehicle 90% water, 7% Tween20, 3% ethanol
[6] = racemic compounds, 3 mg/kg single gavage dose, vehicle 90% water, 7% Tween20, 3% ethanol
[7] = racemic compounds, 10 mg/kg single gavage dose, vehicle 90% water, 7% Tween20, 3% ethanol

CCN1CCC2C(C1)c1cc(I)c(C)cc1C2c1ccc(C(=O)OC)cc1 (single isomer, unassigned) [18 (l)]
SI change (%) (Spermatogenic Index, % change from vehicle control) (adult male Swiss mice; [1]): −34%* | TW change (%) (testes weight, % change from vehicle control) (adult male Swiss mice; [1]): −11%* | SI change (%) (Spermatogenic Index, % change from vehicle control) (adult male Swiss mice; [2]): −66%* | TW change (%) (testes weight, % change from vehicle control) (adult male Swiss mice; [2]): −21%* | SI change (%) (Spermatogenic Index, % change from vehicle control) (adult male Swiss mice; [3]): −71%* | TW change (%) (testes weight, % change from vehicle control) (adult male Swiss mice; [3]): −27%* | SI change (%) (Spermatogenic Index, % change from vehicle control) (adult male Swiss mice; [4]): −72%* | TW change (%) (testes weight, % change from vehicle control) (adult male Swiss mice; [4]): −31%*

CCN1CCC2=C(c3ccc(C)cc3)c3cc(C)ccc3C2C1.Cl (racemic) [Compound 4587-040]
CFU for MFC at 100 (Candida albicans; C. albicans (19 hours), concentration 100): Cidal (Cidal = >98% killed) | CFU for MFC at 200 (Candida albicans; C. albicans (19 hours), concentration 200): Cidal (Cidal = >98% killed) | CFU for MFC at 300 (Candida albicans; C. albicans (19 hours)): Cidal (Cidal = >98% killed) | Lowest [Active] (Candida albicans; C. albicans (19 hours)): 100 | CFU for MFC at 100 (Aspergillus fumigatus; A. fumigatus (48 hours), concentration 100): Cidal (Cidal = >98% killed) | CFU for MFC at 200 (Aspergillus fumigatus; A. fumigatus (48 hours)): Cidal (Cidal = >98% killed) | CFU for MFC at 300 (Aspergillus fumigatus; A. fumigatus (48 hours), concentration 300): Cidal (Cidal = >98% killed) | Lowest [Active] (Aspergillus fumigatus; A. fumigatus (48 hours)): 100

CC(=O)N1CCN(c2ccc(OCC3COC(Cn4ccnc4)(c4ccc(Cl)cc4Cl)O3)cc2)CC1 (stereo not shown) [Ketaconazole, reference compound]
Lowest MIC (Candida albicans; C. albicans): 32 µg/mL | Lowest MIC (Aspergillus fumigatus; A. fumigatus): 8 µg/mL

CCN1CCC2C(C1)c1ccc(C)cc1C2c1ccc(C)cc1.Cl (stereo not shown) [Compound 4587-002l]
Lowest MIC (Candida albicans; C. albicans): 75 µg/mL | Lowest MFC (Candida albicans; C. albicans, lowest concentration that kills >= 98% of the cells in the well): 100 µg/mL | Lowest MIC (Aspergillus fumigatus; A. fumigatus): 50 µg/mL | Lowest MFC (Aspergillus fumigatus; A. fumigatus, lowest concentration that kills >= 98% of the cells in the well): 75 µg/mL

CCN1CC[C@@H]2[C@@H](c3ccc(C(=O)O)cc3)c3cc(C)c(Cl)cc3[C@@H]2C1.Cl (racemic) [Compound 20, (4aRS,5SR,9bRS)-2-Ethyl-8-Chloro-7-Methyl-2,3,4,4a,5,9b-Hexahydro-5-(4-carboxylphenyl)-1H-Indeno[1,2-c]pyridine Hydrochloride]
SI change (%) (Spermatogenic Index, % change from vehicle control) (adult male Swiss mice; [5]): −55%* | TW change (%) (testes weight, % change from vehicle control) (adult male Swiss mice; [5]): −16% | SI change (%) (Spermatogenic Index, % change from vehicle control) (adult male Swiss mice; [6]): −66%* | TW change (%) (testes weight, % change from vehicle control) (adult male Swiss mice; [6]): −23% | SI change (%) (Spermatogenic Index, % change from vehicle control) (adult male Swiss mice; [7]): −72%* | TW change (%) (testes weight, % change from vehicle control) (adult male Swiss mice; [7]): −22%

CCN1CCC(C(c2ccc(C)cc2)c2cccc(C)c2)CC1.Cl (stereo not shown) [Compound 4587-006]
CFU for MFC at 300 (Candida albicans; C. albicans (19 hours)): Static (Static = well looked clear, but <98% killed) | Lowest [Active] (Candida albicans; C. albicans (19 hours)): 300

CCN1CCC2C(C1)c1ccc(C)cc1C2c1ccc(CO)cc1.Cl (racemic) [Compound 4587-055]
CFU for MFC at 300 (Candida albicans; C. albicans (19 hours)): Static (Static = well looked clear, but <98% killed) | Lowest [Active] (Candida albicans; C. albicans (19 hours)): 300

CCN1CCC2C(C1)c1ccc(C)cc1C2c1ccc(C#N)cc1.Cl (racemic) [Compound 4587-060]
CFU for MFC at 200 (Aspergillus fumigatus; A. fumigatus (48 hours)): Cidal (Cidal = >98% killed) | Lowest [Active] (Aspergillus fumigatus; A. fumigatus (48 hours)): 200
